Data reported in ChEMBL document CHEMBL1914332, “Marine diterpene glycosides” (Bioorg Med Chem, 2011).

These compounds were tested on MCF7 (assay: Antimitotic activity in human MCF7 cells assessed as mitotic arrest after 16 to 20 hrs by ELISA method).
Assay type: functional, cell-based

Question: For `CC(=O)O[C@@H]1[C@H](OC/C2=C/[C@@H]3[C@@H](C(C)C)CC=C(C)[C@@H]3C[C@H](OC(=O)/C=C/c3cn(C)cn3)[C@]3(C)C=C[C@@]2(OCCO)O3)OC[C@@H](O)[C@H]1O`, which IC50 is on record?
Answer: Its IC50 is 20 nM.

Question: How did the IC50 turn out when `CC(=O)O[C@@H]1[C@H](OC/C2=C/[C@@H]3[C@@H](C(C)C)CC=C(C)[C@@H]3C[C@H](OC(=O)/C=C/c3cn(C)cn3)[C@]3(C)C=C[C@@]2(OCC(C)(C)CO)O3)OC[C@@H](O)[C@H]1O` was run?
Answer: Its IC50 is 80 nM.

Question: With `CO[C@]12C=C[C@](C)(O1)[C@@H](OC(=O)/C=C/c1cn(C)cn1)C[C@@H]1[C@H](/C=C\2CO[C@@H]2OC[C@@H](O)[C@@H](O)[C@@H]2OC(C)=O)[C@@H](C(C)C)C[C@@H]2O[C@@]21C` as the compound, how does the IC50 read?
Answer: The IC50 was 30 nM.

Question: `CCO[C@]12C=C[C@](C)(O1)[C@@H](OC(=O)/C=C/c1cn(C)cn1)C[C@H]1C(CO)=CC[C@H](C(C)C)[C@H]1/C=C\2CO[C@@H]1OC[C@@H](O)[C@@H](O)[C@@H]1OC(C)=O` was tested. Which IC50 did it give?
Answer: The IC50 was 20 nM.

Question: `CO[C@]12C=C[C@](C)(O1)[C@@H](OC(=O)/C=C/c1cn(C)cn1)C[C@@H]1[C@H](/C=C\2CO[C@@H]2OC[C@@H](O)[C@@H](O)[C@@H]2OC(C)=O)[C@@H](C(C)C)C[C@H]2O[C@@]12C` was tested. Which IC50 did it give?
Answer: Its IC50 is 300 nM.

Question: `CO[C@]12CC[C@](C)(O1)[C@@H](OC(=O)CCc1cn(C)cn1)C[C@@H]1[C@H](/C=C\2CO[C@@H]2OC[C@@H](O)[C@@H](O)[C@@H]2OC(C)=O)[C@@H](C(C)C)CC[C@@H]1C` was tested. Which IC50 did it give?
Answer: The IC50 was > 10000 nM.

Question: With `CO[C@]12C=C[C@](C)(O1)[C@@H](OC(=O)CCc1cn(C)cn1)C[C@H]1C(C)=CC[C@H](C(C)C)[C@H]1/C=C\2CO[C@@H]1OC[C@@H](O)[C@@H](O)[C@@H]1OC(C)=O` as the compound, how does the IC50 read?
Answer: The IC50 was 20000 nM.

Question: Which IC50 does the source give for `CO[C@]12C=C[C@](C)(O1)[C@@H](OC(=O)/C=C/c1cn(C)cn1)C[C@@H]1[C@H](/C=C\2CO[C@@H]2OC[C@@H](O)[C@@H](O)[C@@H]2OC(C)=O)[C@@H](C(C)C)C=C[C@@]1(C)O` [CARIBAEOSIDE] here?
Answer: Its IC50 is 20000 nM.

Question: Which IC50 does the source give for `CC(=O)O[C@@H]1[C@H](OC/C2=C/[C@@H]3[C@@H](C(C)C)CC=C(C)[C@@H]3C[C@H](OC(=O)/C=C/c3cn(C)cn3)[C@]3(C)C=C[C@@]2(O)O3)OC[C@@H](O)[C@H]1O` [DESMETHYLELEUTHEROBIN] here?
Answer: Its IC50 is 20 nM.

Question: How did the IC50 turn out when `CO[C@]12C=C[C@](C)(O1)[C@@H](OC(=O)/C=C/c1cn(C)cn1)C[C@H]1C(C)=CC[C@H](C(C)C)[C@H]1/C=C\2CO[C@@H]1OC[C@@H](O)[C@@H](O)[C@@H]1OC(C)=O` [ELEUTHEROBIN] was run?
Answer: Its IC50 is 100 nM.

Question: `CO[C@]12C=C[C@](C)(O1)[C@@H](OC(=O)/C=C/c1cn(C)cn1)C[C@H]1C(C)=CC[C@H](C(C)C)[C@H]1/C=C\2CO[C@@H]1OC[C@@H](O)[C@@H](OC(C)=O)[C@@H]1O` [ISOELEUTHEROBIN A] was tested. Which IC50 did it give?
Answer: Its IC50 is 50 nM.

Question: How did the IC50 turn out when `CO[C@]12CC[C@](C)(O1)[C@@H](OC(=O)/C=C/c1cn(C)cn1)C[C@@H]1[C@H](/C=C\2CO[C@@H]2OC[C@@H](O)[C@@H](O)[C@@H]2OC(C)=O)[C@@H](C(C)C)CC[C@@H]1C` [TETRAHYDROELEUTHEROBIN] was run?
Answer: The IC50 was 200 nM.
